Measurements as given in PMC6632053, “Incorporation of Putative Helix-Breaking Amino Acids in the Design of Novel Stapled Peptides: Exploring Biophysical and Cellular Permeability Properties” (Molecules, 2019).
Bridge positions count the residues as written; N and C are the ends. Square brackets hold non-standard residues; d marks the D form. Peptide text beside a SMILES is read from it. Lys(N3) = [N-]=[N+]=NCCCC[C@H](N)C(=O)O; R8 = C=CCCCCCC[C@@](C)(N)C(=O)O; Cba = N[C@@H](CC1CCC1)C(=O)O; S5 = C=CCCC[C@](C)(N)C(=O)O; Aib = CC(C)(N)C(=O)O; βAla = NCCC(=O)O

Key:
[1] = Circular dichroism (CD) α-helicity; assay type: physicochemical; conditions: Table 2; CD of free peptide, 25 °C, 1 mM Hepes pH 7.4, 5% methanol
Method: A total of 5 µL of the 10 mM stock peptide was mixed with 45 µL of 100% methanol, and dried for 2 h in the SpeedVac concentrator (Thermo Scientific). The dried peptide was reconstituted in a buffer (1 mM Hepes pH 7.4 and 5% methanol) to a concentration of 1 mM. The peptide sample was placed in a quartz cuvette with a path length of 0.2 cm. The peptide concentration was determined by the absorbance of the peptide at […]. The CD spectrum was recorded from 300 to 190 nm using the Chirascan-plus qCD machine (Applied Photophysics, Surrey, UK), at 25 °C. All experiments were done in duplicates. The CD spectrum was converted to mean residue ellipticity, before deconvolution and estimation of the secondary structure components of the peptide using the CDNN software (distributed by Applied Photophysics).

[2] = system: p53 responsive β-lactamase reporter in HCT116 cells; test: p53 beta-lactamase reporter gene cellular functional assay; assay type: cell-based; conditions: Table 2; p53 reporter assay, HCT116; read-out: Cellular (µM), cellular activity (EC50)
Method: HCT116 cells were stably transfected with a p53 responsive β-lactamase reporter and were seeded into a 384-well plate at a density of 8000 cells per well. Cells were maintained in McCoy’s 5A Medium with 10% fetal bovine serum (FBS), Blasticidin, and Penicillin/Streptomycin. The cells were incubated overnight, followed by removal of cell growth media and replacement with Opti-MEM either containing 0% FBS or 10% FBS. […] The final working concentration of DMSO was 0.5%. β-lactamase activity was detected using the ToxBLAzer Dual Screen (Invitrogen), as per the manufacturer’s instructions. Measurements were made using the Envision multiplate reader (Perkin–Elmer).

| Structure (SMILES) | Helicity (%) [1] | EC50 [2] |
| --- | --- | --- |
| CC(=O)N[C@@H](CCCCN=[N+]=[N-])C(=O)NCCC(=O)N[C@@H](CC(C)C)C(=O)N[C@H](C(=O)N[C@@H](Cc1ccccc1)C(=O)N[C@]1(C)CCCCCCC=CCCC[C@@](C)(C(=O)N[C@@H](C)C(=O)NC(C)(C)C(=O)N[C@@H](C)C(N)=O)NC(=O)[C@H](CC2CCC2)NC(=O)[C@H](CCC(N)=O)NC(=O)[C@H](C)NC(=O)[C@H](Cc2c[nH]c3ccccc23)NC(=O)[C@H](Cc2ccc(O)cc2)NC(=O)[C@H](CCC(=O)O)NC1=O)[C@@H](C)O [A13(Aib)] (Ac-[Lys(N3)][βAla]LTF[R8]EYWAQ[Cba][S5]A[Aib]A-NH2; staple 6-13) | 34.4% | 0.59 µM |
| CC(=O)N[C@@H](CCCCN=[N+]=[N-])C(=O)NCCC(=O)N[C@@H](CC(C)C)C(=O)N[C@H](C(=O)N[C@@H](Cc1ccccc1)C(=O)N[C@]1(C)CCCCCCC=CCCC[C@@](C)(C(=O)NC(C)(C)C(=O)N[C@@H](C)C(=O)N[C@@H](C)C(N)=O)NC(=O)[C@H](CC2CCC2)NC(=O)[C@H](CCC(N)=O)NC(=O)[C@H](C)NC(=O)[C@H](Cc2c[nH]c3ccccc23)NC(=O)[C@H](Cc2ccc(O)cc2)NC(=O)[C@H](CCC(=O)O)NC1=O)[C@@H](C)O [S12(Aib)] | 37.3% | 0.25 µM |
| CC(=O)N[C@@H](CCCCN=[N+]=[N-])C(=O)NCCC(=O)N[C@@H](CC(C)C)C(=O)N[C@H](C(=O)N[C@@H](Cc1ccccc1)C(=O)N[C@]1(C)CCCCCCC=CCCC[C@@](C)(C(=O)N[C@@H](CO)C(=O)N[C@@H](C)C(=O)N[C@@H](C)C(N)=O)NC(=O)[C@H](CC2CCC2)NC(=O)C(C)(C)NC(=O)[C@H](C)NC(=O)[C@H](Cc2c[nH]c3ccccc23)NC(=O)[C@H](Cc2ccc(O)cc2)NC(=O)[C@H](CCC(=O)O)NC1=O)[C@@H](C)O [Q9(Aib)] | 28% | 0.25 µM |
| CC(=O)N[C@@H](CCCCN=[N+]=[N-])C(=O)NCCC(=O)N[C@@H](CC(C)C)C(=O)N[C@H](C(=O)N[C@@H](Cc1ccccc1)C(=O)N[C@]1(C)CCCCCCC=CCCC[C@@](C)(C(=O)N[C@@H](CO)C(=O)N[C@@H](C)C(=O)N[C@@H](C)C(N)=O)NC(=O)[C@H](CC2CCC2)NC(=O)[C@H](CCC(N)=O)NC(=O)C(C)(C)NC(=O)[C@H](Cc2c[nH]c3ccccc23)NC(=O)[C@H](Cc2ccc(O)cc2)NC(=O)[C@H](CCC(=O)O)NC1=O)[C@@H](C)O [A8(Aib)] | 37.5% | 1.5 µM |
| CC(=O)N[C@@H](CCCCN=[N+]=[N-])C(=O)NCCC(=O)N[C@@H](CC(C)C)C(=O)NC(C)(C)C(=O)N[C@@H](Cc1ccccc1)C(=O)N[C@]1(C)CCCCCCC=CCCC[C@@](C)(C(=O)N[C@@H](CO)C(=O)N[C@@H](C)C(=O)N[C@@H](C)C(N)=O)NC(=O)[C@H](CC2CCC2)NC(=O)[C@H](CCC(N)=O)NC(=O)[C@H](C)NC(=O)[C@H](Cc2c[nH]c3ccccc23)NC(=O)[C@H](Cc2ccc(O)cc2)NC(=O)[C@H](CCC(=O)O)NC1=O [T2(Aib)] | 38.3% | 2.9 µM |
| CC(=O)N[C@@H](CCCCN=[N+]=[N-])C(=O)NCCC(=O)NC(C)(C)C(=O)N[C@H](C(=O)N[C@@H](Cc1ccccc1)C(=O)N[C@]1(C)CCCCCCC=CCCC[C@@](C)(C(=O)N[C@@H](CO)C(=O)N[C@@H](C)C(=O)N[C@@H](C)C(N)=O)NC(=O)[C@H](CC2CCC2)NC(=O)[C@H](CCC(N)=O)NC(=O)[C@H](C)NC(=O)[C@H](Cc2c[nH]c3ccccc23)NC(=O)[C@H](Cc2ccc(O)cc2)NC(=O)[C@H](CCC(=O)O)NC1=O)[C@@H](C)O [L1(Aib)] | 42.7% | 0.49 µM |

Next, values leading:

| Helicity (%) [1] | EC50 [2] | Structure (SMILES) |
| --- | --- | --- |
| 38.2% | 7.7 µM | CC(=O)N[C@@H](CCCCN=[N+]=[N-])C(=O)NCCC(=O)N[C@@H](CC(C)C)C(=O)N(C)[C@H](C(=O)N[C@@H](Cc1ccccc1)C(=O)N[C@]1(C)CCCCCCC=CCCC[C@@](C)(C(=O)N[C@@H](CO)C(=O)N[C@@H](C)C(=O)N[C@@H](C)C(N)=O)NC(=O)[C@H](CC2CCC2)NC(=O)[C@H](CCC(N)=O)NC(=O)[C@H](C)NC(=O)[C@H](Cc2c[nH]c3ccccc23)NC(=O)[C@H](Cc2ccc(O)cc2)NC(=O)[C@H](CCC(=O)O)NC1=O)[C@@H](C)O [T2(N-methyl L-Thr)] |
| 32.6% | 0.46 µM | CC(=O)N[C@@H](CCCCN=[N+]=[N-])C(=O)NCCC(=O)N(C)[C@@H](CC(C)C)C(=O)N[C@H](C(=O)N[C@@H](Cc1ccccc1)C(=O)N[C@]1(C)CCCCCCC=CCCC[C@@](C)(C(=O)N[C@@H](CO)C(=O)N[C@@H](C)C(=O)N[C@@H](C)C(N)=O)NC(=O)[C@H](CC2CCC2)NC(=O)[C@H](CCC(N)=O)NC(=O)[C@H](C)NC(=O)[C@H](Cc2c[nH]c3ccccc23)NC(=O)[C@H](Cc2ccc(O)cc2)NC(=O)[C@H](CCC(=O)O)NC1=O)[C@@H](C)O [L1(N-methyl L-Leu)] |
| 47.5% | 0.71 µM | CC(=O)N[C@@H](CCCCN=[N+]=[N-])C(=O)NCCC(=O)N[C@@H](CC(C)C)C(=O)N[C@H](C(=O)N[C@@H](Cc1ccccc1)C(=O)N[C@]1(C)CCCCCCC=CCCC[C@@](C)(C(=O)N[C@@H](CO)C(=O)N[C@@H](C)C(=O)N(C)[C@@H](C)C(N)=O)NC(=O)[C@H](CC2CCC2)NC(=O)[C@H](CCC(N)=O)NC(=O)[C@H](C)NC(=O)[C@H](Cc2c[nH]c3ccccc23)NC(=O)[C@H](Cc2ccc(O)cc2)NC(=O)[C@H](CCC(=O)O)NC1=O)[C@@H](C)O [A14(N-methyl L-Ala)] |
| 47.2% | 1.49 µM | CC(=O)N[C@@H](CCCCN=[N+]=[N-])C(=O)NCCC(=O)N(C)[C@@H](C)C(=O)N[C@H](C(=O)N[C@@H](Cc1ccccc1)C(=O)N[C@]1(C)CCCCCCC=CCCC[C@@](C)(C(=O)N[C@@H](CO)C(=O)N[C@@H](C)C(=O)N[C@@H](C)C(N)=O)NC(=O)[C@H](CC2CCC2)NC(=O)[C@H](CCC(N)=O)NC(=O)[C@H](C)NC(=O)[C@H](Cc2c[nH]c3ccccc23)NC(=O)[C@H](Cc2ccc(O)cc2)NC(=O)[C@H](CCC(=O)O)NC1=O)[C@@H](C)O [L1(N-methyl L-Ala)] |
